Laboratory results: patent US8877801B2, “Compounds and compositions as selective estrogen receptor degraders” (Novartis AG, priority 2013, dated 2014)
Like-named read-outs stand apart in the source and are kept apart here.

Key:
ER = target: T1, ER (Homo sapiens, UniProt P03372); test: ER transcription assay (MCF7 cells), ERE-luciferase reporter; format: cell-based
T1 construct: transfected in MCF7 cells (containing endogenous ER); endogenous in cells; host or cells: MCF7 cells
T1 sequence (P03372 1-595): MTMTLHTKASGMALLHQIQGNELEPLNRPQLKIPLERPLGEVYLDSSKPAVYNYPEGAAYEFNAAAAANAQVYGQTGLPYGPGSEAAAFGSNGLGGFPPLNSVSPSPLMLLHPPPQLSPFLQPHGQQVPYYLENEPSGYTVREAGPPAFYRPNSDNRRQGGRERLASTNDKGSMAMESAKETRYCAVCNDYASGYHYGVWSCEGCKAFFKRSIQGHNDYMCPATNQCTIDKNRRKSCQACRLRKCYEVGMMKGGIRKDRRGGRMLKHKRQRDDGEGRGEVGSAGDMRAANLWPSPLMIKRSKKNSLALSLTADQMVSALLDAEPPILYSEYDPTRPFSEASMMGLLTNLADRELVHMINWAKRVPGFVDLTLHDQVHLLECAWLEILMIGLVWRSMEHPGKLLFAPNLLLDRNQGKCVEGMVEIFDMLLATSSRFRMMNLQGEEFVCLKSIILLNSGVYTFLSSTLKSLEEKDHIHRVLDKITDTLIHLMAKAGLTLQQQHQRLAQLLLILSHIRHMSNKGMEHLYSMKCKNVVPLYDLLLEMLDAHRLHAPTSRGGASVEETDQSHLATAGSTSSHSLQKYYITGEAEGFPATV
From the text: ER Transcription Assay (MCF7 Cells)
The ER transcription assay is a reporter assay that is based on the ability of ER to induce transcription from a luciferase reporter gene containing estrogen response elements (EREs) in the promoter/enhancer region. When the reporter gene is transfected in MCF7 cells (containing endogenous ER), transcription is reflected by the level of luciferase expression.
A day before transfection, cells are split into a T75 flask at a cell density of 300,000 cells/mL (10 mL total) and allowed to attach overnight in a humidified CO2 incubator at 37° C.
Approximately 20 ug DNA is mixed in OptiMEM (Invitrogen) to a total volume of 650 μL. Following incubation, the OptiMEM-DNA mixture is added to the OptiMEM-Lipofectin mix and incubated for 15 minutes at 37° C. The DNA-Lipofectin mixture is then added directly to the T75 flask and the flask is returned to the incubator.
After overnight incubation, compound is added to individual wells of a 96-well plate in a 10 μL volume of media at 10× concentration along with 17β estradiol whose final concentration is 0.1 nM. Normally, DMSO (used as a vehicle) is included to achieve a final concentration of 0.1% when added to the cells. Transfected cells are trypsinized, resuspended in DMEM/F12/10% charcoal-stripped serum and added to the 96-well plate at 25,000 cells/well in 90 μL of media. The plate is then returned to the incubator for 24 hours.
After incubation with compounds for 24 hours, Firefly and Renilla luciferase activities are measured to determine ER transcriptional activity. Media is removed from 96-well plates by decanting and blotting on paper towels.
One second total read time after a one second delay.
One second total read time after one second delay. If Firefly luciferase signal is high, Renilla assay must be done an hour after the Firefly assay due to incomplete squelching of Firefly signal.
(§1) The data describing the antagonist and degradation properties for the examples is compiled in table 10. The column titled MCF7 IC50 reports the inflection point of the inhibition of transcription in MCF7 cells as described above. Percentage ERα remaining reports the remaining ERα protein measured at 10 μM concentration of the ligand as described above. The column ERα IC50 reports the inflection point of the degradation in response to the ligand concentration.

ERα = target: T2, ERα (Homo sapiens, UniProt P03372); test: ERα degradation (MCF7 cells), in-cell Western; format: cell-based; settings: for % ERα remaining: 10 μM concentration of the ligand, MCF7 cells, 18-24 hours, relative to DMSO control
T2 construct: transfected in MCF7 cells (containing endogenous ER); endogenous in cells; host or cells: MCF7 cells
T2 sequence (P03372 1-595): T1 sequence (P03372 1-595)
Description: ERα Degradation (MCF7 Cells)
as §1

[1] = MCF7 cells, ER reporter gene, 0.1 nM 17β estradiol, 24 hours, read-out: MCF7 IC50 (inflection point of the inhibition of transcription in MCF7 cells)
[2] = comparison of groups at the X position, read-out: IC50 MCF7 μM (antagonist activity)
[3] = comparison of groups at the X position
[4] = comparison of bond order between the phenyl and -C(O)OH, read-out: SERD IC50 MCF7 μM (antagonist activity)
[5] = comparison of bond order between the phenyl and -C(O)OH

SMILES	IC50 (ER; [1]) [nM]	% ERα remaining (ERα) [%]	also measured
CCCn1cnc(/C=C/c2ccc(Oc3c(-c4ccc(O)cc4)sc4cc(O)ccc34)cc2)c1 [Example 74, (E)-2-(4-hydroxyphenyl)-3-(4-(2-(1-propyl-1H-imidazol-4-yl)vinyl)phenoxy)benzo [b]thiophen-6-ol]	108	41	
COc1cc(Oc2c(-c3ccc(O)cc3)sc3cc(O)ccc23)ccc1/C=C/C(=O)O [Example 58, (E)-3-(4-((6-hydroxy-2-(4-hydroxyphenyl)-benzo[b]thiophen-3-yl)oxy)-2-methoxyphenyl)acrylic acid]	5020	35	
Oc1ccc(-c2sc3cc(O)ccc3c2Oc2ccc(/C=C/c3c[nH]cn3)cc2)cc1 [Example 72, (E)-3-(4-(2-(1H-imidazol-4-yl)vinyl)phenoxy)-2-(4-hydroxyphenyl)benzo[b]thiophen-6-ol]	125	47	
Cn1cnc(/C=C/c2ccc(Oc3c(-c4ccc(O)cc4)sc4cc(O)ccc34)cc2)c1 [Example 73, (E)-2-(4-hydroxyphenyl)-3-(4-(2-(1-methyl-1H-imidazol-4-yl)vinyl)phenoxy)-benzo[b]thiophen-6-ol]	58	32	
CNC(=O)/C=C/c1ccc(Oc2c(-c3ccc(C(F)(F)F)cc3)sc3cc(O)ccc23)cc1 [Example 70, (E)-3-(4-((6-hydroxy-2-(4-(trifluoromethyl)phenyl)benzo[b]thiophen-3-yl)oxy)phenyl)-N-methylacrylamide]	269	41	
O=C(O)/C=C/c1ccc(-c2c(-c3ccc(O)cc3)sc3cc(O)ccc23)cc1 [reference compound]			IC50 (ER; [2]): > 10000 nM; ER Percentage remaining (degradation potential) (ERα; [3]): 76%
CCCn1cncc1/C=C/c1ccc(Oc2c(-c3ccc(O)cc3)sc3cc(O)ccc23)cc1 [Example 75, (E)-2-(4-hydroxyphenyl)-3-(4-(2-(1-propyl-1H-imidazol-5-yl)vinyl)phenoxy)benzo[b] thiophen-6-ol]	10	42	
CNC(=O)/C=C/c1ccc(Oc2c(-c3ccc(O)cc3)sc3cc(O)ccc23)cn1 [Example 71, (E)-3-(5-((6-hydroxy-2-(4-hydroxyphenyl)benzo[b]thiophen-3-yl)oxy)pyridin-2-yl)-N-methylacrylamide]	53	39	
O=C(O)c1ccc(Oc2c(-c3ccc(O)cc3)sc3cc(O)ccc23)cc1 [reference compound]			IC50 (ER; [4]): ≥ 10000 nM; ER Percentage remaining (degradation potential) (ERα; [5]): 57%
Cc1cc(F)ccc1-c1sc2cc(O)ccc2c1Oc1ccc(/C=C/c2nnc(C3CC3)o2)cc1 [Example 76, (E)-3-(4-(2-(5-cyclopropyl-1,3,4-oxadiazol-2-yl)vinyl)phenoxy)-2-(4-fluoro-2-methylphenyl)benzo[b]-thiophen-6-ol]	16	36	
CNC(=O)/C=C/c1ccc(Oc2c(-c3ccc(O)c(F)c3)sc3cc(O)ccc23)cc1 [Example 69, (E)-3-(4-((2-(3-fluoro-4-hydroxyphenyl)-6-hydroxybenzo[b]thiophen-3-yl)oxy)phenyl)-N-methylacrylamide]	41	32	
O=C(O)/C=C/c1ccc(C(=O)c2c(-c3ccc(O)cc3)sc3cc(O)ccc23)cc1 [reference compound]			IC50 (ER; [2]): > 10000 nM; ER Percentage remaining (degradation potential) (ERα; [3]): 60%
Cc1nnc(/C=C/c2ccc(Oc3c(-c4ccc(F)cc4C)sc4cc(O)ccc34)cc2)o1 [Example 46, (E)-2-(4-fluoro-2-methylphenyl)-3-(4-(2-(5-methyl-1,3,4-oxadiazol-2-yl)vinyl)phenoxy)benzo[b]thiophen-6-ol]	108		
O=C(O)/C=C/c1ccc(Oc2c(-c3ccc(O)cc3)sc3cc(O)ccc23)cc1 [Example 2, (E)-3-(4-((6-hydroxy-2-(4-hydroxyphenyl)benzo[b]thiophen-3-yl)oxy)phenyl)acrylic acid]	748		IC50 (ER; [4]): 748 nM; IC50 (ER; [2]): 748 nM; ER Percentage remaining (degradation potential) (ERα; [5]): 41%; ER Percentage remaining (degradation potential) (ERα; [3]): 41%
CN(c1ccc(/C=C/C(=O)O)cc1)c1c(-c2ccc(O)cc2)sc2cc(O)ccc12 [Example 30, (E)-3-(4-((6-hydroxy-2-(4-hydroxyphenyl)benzo[b]thiophen-3-yl)(methyl)amino)phenyl)acrylic acid]	3400		
O=C(O)/C=C/c1ccc(Oc2c(-c3ccc(O)cc3)sc3cc(O)ccc23)cn1 [Example 29, (E)-3-(5-((6-hydroxy-2-(4-hydroxyphenyl)benzo[b]thiophen-3-yl)oxy)pyridin-2-yl)acrylic acid]	7750		
COC(=O)/C=C/c1ccc(Oc2c(-c3ccc(F)cc3)sc3cc(O)ccc23)cc1 [Example 36, (E)-methyl 3-(4-((2-(4-fluorophenyl)-6-hydroxybenzo[b]thiophen-3-yl)oxy)phenyl)-acrylate]	137		
O=C(O)CCCc1ccc(Oc2c(-c3ccc(O)cc3)sc3cc(O)ccc23)cc1 [reference compound]			IC50 (ER; [4]): ≥ 10000 nM; ER Percentage remaining (degradation potential) (ERα; [5]): 55%
